Experimental data taken from a melting point compilation (Tetko et al.; mined from patent text by program, amines drawn as free bases though some values may be those of a salt).

| Structure (SMILES) | melting point [°C] |
| --- | --- |
| NC(=S)c1ncccc1O | 150 to 151 |
| S=C(N1CCC(c2ccccc2)(c2ccccc2)CC1)n1ccnc1 | 161 to 165 |
| CC1(C)C(=O)Nc2ccc(C3=NNC(=O)C4CCC34)cc21 (configuration not stated) | 315 to 317 |
| COCOc1ccc(OC(C)C(=O)Nc2ccc(OC(F)(F)F)cc2)cc1 (configuration not stated) | 115 to 116 |
| O=C(OCCc1ccc(OCc2ccc(Cl)cc2)cc1)c1cccnc1 | 109 to 110 |
| COc1cc(C(OC)OC)cc([N+](=O)[O-])c1O | 58 to 59 |
| CCOC(=O)c1cn(-c2nncs2)c2nc(Cl)c(F)cc2c1=O | 201 to 203 |
| Cc1ccc(NC(=O)OCC(C)C)cc1Nc1ncc(-c2cccnc2)o1 | 186 |
| CC(C)(C)C(=O)C(=CC1CCCCC1)n1cncn1 | 98 |
| Cn1c(=O)cc(CCO)c2ccccc21 | 149 to 150 |
| COc1cc(NC(=O)C(C#N)=CNc2ccc(OC)c(OCCCCl)c2)c(Cl)cc1Cl | 185 to 192 |
| Cc1ccc(NC(Nc2ccc(C)cc2)Nc2ccc(C)cc2)cc1 | 130 to 131 |
| COc1ccc(C2=NN(C(=O)c3cccc(NC(=O)c4ccc(NC(=O)c5ccc([N+](=O)[O-])cc5)cc4)c3)CCC2)cc1OCCN(C)C | 274 |
| CCCOC(=O)CCc1cc(S(C)(=O)=O)cc(-c2nc(=O)c3ccc(Cl)cc3s2)n1 | 235 to 236 |
| Brc1ccc(-c2cc3nccnc3[nH]2)cc1 | 326 to 329 |
| O=C(NCC12CC3CC(CC(C3)C1)C2)c1cc(-c2ccc(F)cc2C(=O)O)ccc1Cl | 126 to 128 |
| Cn1c(COc2ccc(CC3SC(=O)NC3=O)cc2)nc2ccc(Oc3ccc(NC(=S)Nc4ccccc4)cc3)cc21 (configuration not stated) | 130 to 131 |
| O=C(N[C@@H]1CCc2c(Br)ccc(N3CCNCC3)c2C1)c1ccc(N2CCOCC2)cc1 | 228 to 229 |
| O=C(c1ccc(Sc2ccc(O)cc2)cc1)c1ccc(Sc2ccc(O)cc2)cc1 | 219 to 221 |
| O=C1c2ccccc2C(=O)N1OCCOCc1ccccc1F | 62 to 64 |
| COc1cc(COc2ccccc2C=O)cc(OC)c1 | 68 to 69 |
| Cc1ccc(S(=O)(=O)NC(=O)Nc2ccc(Cl)cc2)cc1 | 174 to 176 |
| C[C@@H](S[C@H]1CO[C@H](/C=C/C=C/c2ccc(C#N)cc2)OC1)[C@](O)(Cn1cncn1)c1ccc(F)cc1F | 147 to 149 |
| Cc1cc(C)n2nc(S(=O)(=O)Nc3c(F)cccc3F)c(Cl)c2n1 | 194 to 196 |
| COc1ccnc(C(=O)N[C@H]2COC(=O)[C@H](CC3CCCCC3)[C@@H](OC(=O)C(C)C)[C@H](C)OC2=O)c1OC(C)=O | 164 to 170 |
| COc1cc(C)cc(S(=O)(=O)c2cccc(N)c2C#N)c1 | 166 to 168 |

| Structure (SMILES) | melting point [°C] |
| --- | --- |
| CC(C)(C)OC(=O)N[C@H]1CC[C@H](CCN2CCCN(c3cccc(Cl)c3Cl)CC2)CC1 | 95 to 98 |
| CC1(C)Oc2ccc(CC3SC(=O)NC3=O)cc2CC1c1ccccc1 (configuration not stated) | 53 to 68 |
| COC(=O)C=CC(=O)NC(N)=O | 112 to 114 |
| CCCCN1CC(=O)NC1=O | 90 to 92 |
| Nc1cc(C(=O)Nc2ccc(F)cc2)ccc1OC(F)(F)F | 139 to 140 |
| CN(C)C1CCN(c2nc3c(cc2F)c(=O)c(C(=O)O)cn3CCF)C1 (configuration not stated) | 247 to 249 |
| O=C(O)C(Cl)=C(Cl)C(O)=NCCc1ccc(F)cc1 | 137 to 138 |
| CCCCc1ccc(N)nc1 | 30 to 33 |
| CCCOc1cc([N+](=O)[O-])ccc1Cl | 52 to 53 |
| CCN(CC)C(=O)c1nc(-c2cccc3ccccc23)no1 | 102 |
| CCOC(=O)c1c(C)cc2cnc(-c3ccccc3C(F)(F)F)nc2c1C | 68 to 69 |
| COC(=O)c1nc(NC(C)=O)ccc1Oc1cc(OC)cc(OC)n1 | 128 to 130 |
| CC1=NCN2C1=Cc1cncnc1-c1cccc(C(=O)O)c12 | 285 to 287 |
| CCCCCCN(Cc1ccc(N(C)C)cc1)c1c(N[C@@H](Cc2ccccc2)C(=O)O)c(=O)c1=O | 77 to 80 |
| CCCc1ccnc2c(=O)[nH]c(-c3cc(S(=O)(=O)N4CCC(C(=O)O)CC4)ccc3OCC)nc12 | 262 to 264 |
| COc1ccc(-c2cnn3c(N)c(-c4ccc(F)c(Cl)c4)c(C)nc23)cc1 | 224 to 227 |
| COc1cc2c(Nc3ccc(Cl)cc3F)ncnc2cc1OCCN1CCNC1=O | > 250 |
| CC1CC(c2c[nH]c(-c3ccc(F)cc3)c2-c2ccncc2)CCN1 (configuration not stated) | 198 to 205 |
| N#CN=C(Nc1cccnc1)NC(CC12CC3CC(CC(C3)C1)C2)NC(=O)c1ccc(Cl)cc1 (configuration not stated) | 202 to 203 |
| c1ccc2c(c1)CCN2Nc1ccncc1 | 125 to 126 |
| CC12CCC3c4ccc(O)c([N+](=O)[O-])c4CCC3C1CCC2=O (configuration not stated) | > 250 |
| N#CCCc1cncnc1N[C@H]1CC[C@@H](c2ccccc2)CC1 | 58 to 59 |
| Cc1cccc2c1N(CC(=O)N1CC3CCC(CC3)C1)C(=O)C(NC(=O)Nc1cccc(-c3nnn[nH]3)c1)N=C2c1ccccc1F (configuration not stated) | 210 to 213 |
| O=C(NC(Cc1ccc(C(F)(F)F)cc1)C(=O)c1ccc(F)cc1)c1cc(=O)cco1 (configuration not stated) | 115 to 116 |
| CC(C)N1C(=O)N(c2ccc([N+](=O)[O-])c(C(F)(F)F)c2)C(=O)C1(C)C | 130 |
| CC1(C)N[C@H](Cc2ccc(Br)cc2)[C@@H]2C(=O)N(Cc3ccccc3)C(=O)[C@@H]21 (racemic) | 142 to 143 |

Second part, the compound after the results:

| melting point [°C] | Structure (SMILES) |
| --- | --- |
| 171 to 175 | O=C(O)c1ccc(NC(=O)c2ccc(Cl)cc2Cl)cc1Cl |
| 235 to 237 | CC(C)(O)Cn1c(CO)nc2c(N)nc3cccnc3c21 |
| 230 to 233 | COCCn1nc2c(N)nc3ncccc3c2c1CC1CCOCC1 |
| 96 | Cn1c(=O)n(COc2ccc(Cl)cc2)c(=O)c2c1ncn2Cc1ccccc1 |
| 127 to 129 | CCOc1cc2c(cc1OCC)CCC(C(=O)N1CCN(C(=O)c3cc(OC)c(OC)c(OC)c3)CC1)=C2 |
| 159 | CCOC(=O)C1=C(N)OC(C)=C(C(=O)OC)C1c1cc([N+](=O)[O-])ccc1Cl (configuration not stated) |
| 153 to 156 | O=C(NCCCCC1CCSS1)NS(=O)(=O)NC(=O)NCCCCC1CCSS1 (configuration not stated) |
| 80 to 81 | Cc1cc(NCc2ccccc2)c2c(c1)C(c1ccc(C(C)C)cc1)C(C)(C)O2 (configuration not stated) |
| 192 to 194 | Cc1c(C)c2c(c(C)c1OCc1ccccc1)CCC(C)(CN1CCN(CCOc3ccc(C=C4SC(=O)NC4=O)cc3)CC1)O2 (racemic) |
| 248 to 250 | O=c1c2c(CCc3ccccc3)n[nH]c2c2cccnc2n1-c1ccccc1 |
| 216 to 218 | Oc1ccc(-n2nc3ccccc3n2)cc1 |
| 267 to 268 | Cn1c(=O)c2nc(C(=O)O)cn2c2ccccc21 |
| 148 | C=C(CC)C(=O)c1cc2c(c(Cl)c1Cl)OC(C(=O)O)C2 (configuration not stated) |
| 73 to 75 | CCC(C)NC(=O)n1nc(Oc2c(Cl)cc(C(F)(F)F)cc2Cl)cc1C (configuration not stated) |
| 160 | COc1ccc(N=C(C#CSc2ccccc2)N2CCN(C)CC2)cc1 |
| 154 to 155 | COCC(=O)Nc1cc(C(=O)OC)c(O)c2ncc(Cc3ccc(F)cc3)cc12 |
| 105 to 106 | COc1ccc2c(=O)cc(-c3ccc(OCC(O)CNC4CC4)cc3)oc2c1 (configuration not stated) |
| 105 | COC(=O)c1cc(-c2ccc(Cl)cc2)n(Cc2ccc(Cl)cc2Cl)n1 |
| > 250 | Cc1ccc(-n2c(=O)c(N)nc3cccnc32)cc1 |
| 119 to 122 | CC(C)(C)OC(=O)N[C@@H](C(=O)N1CCC[C@H]1C(=O)NC1CCc2n[nH]cc2C1)C(c1ccccc1)c1ccccc1 (some centres not stated) |
| > 200 | O=C1N(Cc2ccccn2)c2cccc(-c3cncnc3)c2C12COc1cc3c(cc12)CCO3 (configuration not stated) |
| 179 to 181 | COc1cc(Nc2ncc(-c3ccccc3N(C)C(=O)CN3CCOCC3)o2)ccc1-c1cnco1 |
| 146 to 147 | C1=CCC2=C(C1)CC1=C(CC=CC1)C2 |

| melting point [°C] | Structure (SMILES) |
| --- | --- |
| 174 to 175 | CCCc1nccn1-c1nc(-c2ccc(Cl)cc2)c(CCC(=O)O)o1 |
| 128 | C[C@@H](N[C@@H](CC(=O)N1CCn2c(nnc2C(F)(F)F)C1)Cc1cc(F)c(F)cc1F)c1ccccc1 |
| 204 | O=C(O)CS(=O)(=O)c1ccc2c(-c3ccccc3F)noc2c1Cl |
| 81 to 82 | CN1C=CC2=C(C=CCC2)CC1=O |
| 73 to 74.5 | CC(=O)SC(CC(=O)c1ccc(Cl)cc1Cl)C(=O)O (configuration not stated) |
| 290 to 292 | CCCCNCCOc1ccc(NC(=O)c2c[nH]c3c2C(=O)CCC3)cc1F |
| 82.5 to 83.5 | CC(=O)c1ccc(-c2ccc(F)cc2F)cc1 |
| 125 to 127 | CC(C(=S)c1ccc(NC=O)nc1)S(C)=O (configuration not stated) |
| 138 to 140 | COC(=O)c1cscc1NC(=O)COc1ccc(Br)cn1 |
| 257 to 261 | Nc1nc2c(sc(=O)n2CC2CCCO2)c(=O)[nH]1 (configuration not stated) |
| 201 | O=C(Nc1ccc(C2CC(F)(F)C2(F)Cl)cc1)Nc1nonc1-c1ccccc1 (configuration not stated) |
| 280 | COc1cc(Cc2cnc(N)nc2N)c(Cc2cnc(N)nc2N)cc1OC |
| 242 to 243 | NCC1CCCN(c2c(F)cc3c(=O)c(C(=O)O)cn(C4CC4)c3c2F)C1 (configuration not stated) |
| 240 to 242 | COc1cc(COc2cccc(CC(=O)O)c2-c2cccc(C(=O)O)c2)ccc1C12CC3CC(CC(C3)C1)C2 |
| 183 to 185 | O=[N+]([O-])c1cc(C(F)(F)F)cc2c1nc(C(F)(F)F)n2S(=O)(=O)c1ccccc1 |
| 300 to 301 | CCOC(=O)c1csc(Nc2ccc(Br)cn2)n1 |
| 125 to 126 | CC(C)n1nc(-c2c(-c3ccccc3)nn3ccc(OCCCN(C)C)cc23)ccc1=O |
| 163 to 165 | COc1cc2c(cc1O)C(Cc1c(OC)cccc1[N+](=O)[O-])N(C)CC2 (configuration not stated) |
| 115 to 116 | COc1ccc(C(C#N)C(=O)Cc2ccccc2)cc1 (configuration not stated) |
| 94 to 95 | CS(=O)(=O)c1ccc(-c2cc(CCCO)nn2CC2CCCCC2)cc1 |
| 153 | Cc1nc(NC(=O)C(c2ccccc2)c2ccccc2)no1 |
| 130 | COCCCS(=O)(=O)NC(=O)/C=C/c1ccc(OC(C)C)cc1Oc1ncc(C(F)(F)F)cc1Cl |
